Laboratory results reported in patent publication US20260027116A1, “Methods of Treating Chronic Graft-Versus-Host Disease Following Allogeneic Hematopoietic Stem Cell Transplantation” (Kadmon Corporation, LLC, priority 2022, published 2026).

Assays:
lung function = experiment: Example 1: percent predicted FVC change from baseline; type: in vivo, human; details: mean (SD)
Description: Change From Baseline in Percent Predicted Forced Vital Capacity (FVC) at Each Specified Time Points. FVC was the total amount of air (in liters) exhaled from the lungs during the lung function test measured by spirometer which assessed the change in lung function related to the disease status. Baseline value was defined as valid and last non-missing value obtained within 28 days prior to participant receiving first study medication. EOT visit was performed within 3 days after the participant's last dose of study drug. […] Analysis was performed on mITT population. Here, ‘number analyzed’=participants with available data for each specified category. Here, ‘0’ in the number analyzed field signifies that none of the participants were available for the analysis at the specified time points.

[1] = pharmacokinetics in healthy subjects (bioavailability, food effect, distribution, excretion); type: in vivo, human

## CC(C)NC(=O)COc1cccc(-c2nc(Nc3ccc4[nH]ncc4c3)c3ccccc3n2)c1 [Belumosudil, 2-{3-[4-(1H-indazol-5-ylamino)-2-quinazolinyl]phenoxy}-N-(propan-2-yl) acetamide]
Lung function; Cohort 2: 200 mg BID, Cycle 10, Day 1
  Change From Baseline in Percent Predicted Forced Vital Capacity (FVC): −5.0 (8.5) percent predicted FVC
Lung function; Cohort 2: 200 mg BID, Cycle 11, Day 1
  Change From Baseline in Percent Predicted Forced Vital Capacity (FVC): −2.7 (5.6) percent predicted FVC
Lung function; Cohort 2: 200 mg BID, Cycle 12, Day 1
  Change From Baseline in Percent Predicted Forced Vital Capacity (FVC): 1.0 (—) percent predicted FVC
Lung function; Cohort 2: 200 mg BID, Cycle 13, Day 1
  Change From Baseline in Percent Predicted Forced Vital Capacity (FVC): −3.3 (15.4) percent predicted FVC
Lung function; Cohort 2: 200 mg BID, Cycle 14, Day 1
  Change From Baseline in Percent Predicted Forced Vital Capacity (FVC): 2.0 (— ) percent predicted FVC
Lung function; Cohort 2: 200 mg BID, Cycle 15, Day 1
  Change From Baseline in Percent Predicted Forced Vital Capacity (FVC): −3.3 (5.5) percent predicted FVC
Lung function; Cohort 2: 200 mg BID, Cycle 16, Day 1
  Change From Baseline in Percent Predicted Forced Vital Capacity (FVC): −6.0 (19.8) percent predicted FVC
Lung function; Cohort 2: 200 mg BID, Cycle 17, Day 1
  Change From Baseline in Percent Predicted Forced Vital Capacity (FVC): −3.0 (11.8) percent predicted FVC
Lung function; Cohort 2: 200 mg BID, Cycle 18, Day 1
  Change From Baseline in Percent Predicted Forced Vital Capacity (FVC): −7.5 (9.2) percent predicted FVC
Lung function; Cohort 2: 200 mg BID, Cycle 19, Day 1
  Change From Baseline in Percent Predicted Forced Vital Capacity (FVC): −5.3 (4.7) percent predicted FVC
Lung function; Cohort 2: 200 mg BID, Cycle 20, Day 1
  Change From Baseline in Percent Predicted Forced Vital Capacity (FVC): −10.5 (2.1) percent predicted FVC
Lung function; Cohort 2: 200 mg BID, Cycle 21, Day 1
  Change From Baseline in Percent Predicted Forced Vital Capacity (FVC): −3.0 (—) percent predicted FVC
Lung function; Cohort 2: 200 mg BID, Cycle 22, Day 1
  Change From Baseline in Percent Predicted Forced Vital Capacity (FVC): −11.0 (0.0) percent predicted FVC
Lung function; Cohort 2: 200 mg BID, Cycle 23, Day 1
  Change From Baseline in Percent Predicted Forced Vital Capacity (FVC): −11.0 (2.8) percent predicted FVC
Lung function; Cohort 2: 200 mg BID, Cycle 24, Day 1
  Change From Baseline in Percent Predicted Forced Vital Capacity (FVC): −13.0 (—) percent predicted FVC
Lung function; Cohort 2: 200 mg BID, Cycle 25, Day 1
  Change From Baseline in Percent Predicted Forced Vital Capacity (FVC): −10.5 (3.5) percent predicted FVC
Lung function; Cohort 2: 200 mg BID, Cycle 27, Day 1
  Change From Baseline in Percent Predicted Forced Vital Capacity (FVC): −18.0 (12.7) percent predicted FVC
Lung function; Cohort 2: 200 mg BID, Cycle 29, Day 1
  Change From Baseline in Percent Predicted Forced Vital Capacity (FVC): −11.0 (—) percent predicted FVC
Lung function; Cohort 2: 200 mg BID, Cycle 31, Day 1
  Change From Baseline in Percent Predicted Forced Vital Capacity (FVC): −15.5 (7.8) percent predicted FVC
Lung function; Cohort 2: 200 mg BID, Cycle 33, Day 1
  Change From Baseline in Percent Predicted Forced Vital Capacity (FVC): −17.5 (7.8) percent predicted FVC
Lung function; Cohort 2: 200 mg BID, Cycle 35, Day 1
  Change From Baseline in Percent Predicted Forced Vital Capacity (FVC): −15.0 (11.3) percent predicted FVC
Lung function; Cohort 2: 200 mg BID, EOT
  Change From Baseline in Percent Predicted Forced Vital Capacity (FVC): −8.4 (9.2) percent predicted FVC
Lung function; Cohort 3: 400 mg QD, Cycle 2, Day 1
  Change From Baseline in Percent Predicted Forced Vital Capacity (FVC): −5.5 (9.9) percent predicted FVC
Lung function; Cohort 3: 400 mg QD, Cycle 3, Day 1
  Change From Baseline in Percent Predicted Forced Vital Capacity (FVC): −3.0 (6.7) percent predicted FVC
Lung function; Cohort 3: 400 mg QD, Cycle 4, Day 1
  Change From Baseline in Percent Predicted Forced Vital Capacity (FVC): −0.2 (8.6) percent predicted FVC
Lung function; Cohort 3: 400 mg QD, Cycle 5, Day 1
  Change From Baseline in Percent Predicted Forced Vital Capacity (FVC): 1.6 (6.3) percent predicted FVC
Lung function; Cohort 3: 400 mg QD, Cycle 6, Day 1
  Change From Baseline in Percent Predicted Forced Vital Capacity (FVC): 0.8 (9.5) percent predicted FVC
Lung function; Cohort 3: 400 mg QD, Cycle 7, Day 1
  Change From Baseline in Percent Predicted Forced Vital Capacity (FVC): 2.3 (9.7) percent predicted FVC
Lung function; Cohort 3: 400 mg QD, Cycle 8, Day 1
  Change From Baseline in Percent Predicted Forced Vital Capacity (FVC): 0.4 (8.9) percent predicted FVC
Lung function; Cohort 3: 400 mg QD, Cycle 9, Day 1
  Change From Baseline in Percent Predicted Forced Vital Capacity (FVC): −0.8 (9.5) percent predicted FVC
Lung function; Cohort 3: 400 mg QD, Cycle 10, Day 1
  Change From Baseline in Percent Predicted Forced Vital Capacity (FVC): 4.7 (4.9) percent predicted FVC
Lung function; Cohort 3: 400 mg QD, Cycle 11, Day 1
  Change From Baseline in Percent Predicted Forced Vital Capacity (FVC): −4.4 (12.0) percent predicted FVC
Lung function; Cohort 3: 400 mg QD, Cycle 12, Day 1
  Change From Baseline in Percent Predicted Forced Vital Capacity (FVC): 0.7 (5.8) percent predicted FVC
Lung function; Cohort 3: 400 mg QD, Cycle 13, Day 1
  Change From Baseline in Percent Predicted Forced Vital Capacity (FVC): −4.9 (9.8) percent predicted FVC
Lung function; Cohort 3: 400 mg QD, Cycle 14, Day 1
  Change From Baseline in Percent Predicted Forced Vital Capacity (FVC): −2.7 (7.1) percent predicted FVC
Lung function; Cohort 3: 400 mg QD, Cycle 15, Day 1
  Change From Baseline in Percent Predicted Forced Vital Capacity (FVC): −4.8 (11.5) percent predicted FVC
Lung function; Cohort 3: 400 mg QD, Cycle 16, Day 1
  Change From Baseline in Percent Predicted Forced Vital Capacity (FVC): −6.5 (6.5) percent predicted FVC
Lung function; Cohort 3: 400 mg QD, Cycle 17, Day 1
  Change From Baseline in Percent Predicted Forced Vital Capacity (FVC): −5.6 (12.8) percent predicted FVC
Lung function; Cohort 3: 400 mg QD, Cycle 18, Day 1
  Change From Baseline in Percent Predicted Forced Vital Capacity (FVC): 4.0 (4.0) percent predicted FVC
Lung function; Cohort 3: 400 mg QD, Cycle 19, Day 1
  Change From Baseline in Percent Predicted Forced Vital Capacity (FVC): 0.8 (5.1) percent predicted FVC
Lung function; Cohort 3: 400 mg QD, Cycle 20, Day 1
  Change From Baseline in Percent Predicted Forced Vital Capacity (FVC): −2.0 (5.6) percent predicted FVC
Lung function; Cohort 3: 400 mg QD, Cycle 21, Day 1
  Change From Baseline in Percent Predicted Forced Vital Capacity (FVC): −6.6 (17.0) percent predicted FVC
Lung function; Cohort 3: 400 mg QD, Cycle 22, Day 1
  Change From Baseline in Percent Predicted Forced Vital Capacity (FVC): −6.0 (8.5) percent predicted FVC
Lung function; Cohort 3: 400 mg QD, Cycle 23, Day 1
  Change From Baseline in Percent Predicted Forced Vital Capacity (FVC): −1.8 (10.6) percent predicted FVC
Lung function; Cohort 3: 400 mg QD, Cycle 24, Day 1
  Change From Baseline in Percent Predicted Forced Vital Capacity (FVC): −15.0 (—) percent predicted FVC
Lung function; Cohort 3: 400 mg QD, Cycle 25, Day 1
  Change From Baseline in Percent Predicted Forced Vital Capacity (FVC): −1.3 (11.7) percent predicted FVC
Lung function; Cohort 3: 400 mg QD, Cycle 27, Day 1
  Change From Baseline in Percent Predicted Forced Vital Capacity (FVC): −4.0 (21.2) percent predicted FVC
Lung function; Cohort 3: 400 mg QD, Cycle 29, Day 1
  Change From Baseline in Percent Predicted Forced Vital Capacity (FVC): 6.0 (1.4) percent predicted FVC
Lung function; Cohort 3: 400 mg QD, Cycle 31, Day 1
  Change From Baseline in Percent Predicted Forced Vital Capacity (FVC): −4.0 (—) percent predicted FVC
Lung function; Cohort 3: 400 mg QD, Cycle 35, Day 1
  Change From Baseline in Percent Predicted Forced Vital Capacity (FVC): −3.0 (—) percent predicted FVC
Lung function; Cohort 3: 400 mg QD, Cycle 36, Day 1
  Change From Baseline in Percent Predicted Forced Vital Capacity (FVC): 2.0 (—) percent predicted FVC
Lung function; Cohort 3: 400 mg QD, Cycle 49, Day 1
  Change From Baseline in Percent Predicted Forced Vital Capacity (FVC): 2.0 (—) percent predicted FVC
Lung function; Cohort 3: 400 mg QD, EOT
  Change From Baseline in Percent Predicted Forced Vital Capacity (FVC): −7.8 (14.7) percent predicted FVC
[1]; high-fat high-calorie meal vs fasted
  food effect, Cmax increase: 2.2 times
[1]; single oral radiolabeled dose
  radioactivity recovered in feces: 85%
  radioactivity recovered in urine: less than 5%
  recovered in feces as unchanged: 30%
